In patent publication US5166357A (priority 1988, dated 1992):
Read-outs that look alike come from different tables or passages of the source.

Legend:
[1] = target: muscarinic receptors; assay: Radio ligand binding: displacement of muscarinic agonist 3H-Oxotremorine-M (3H-OXO-M) from rat cerebral cortex membranes; design: species or system Hooded Lister rats; details: 2nM 3H-OXO-M, 2mM magnesium chloride, tris pH 7.7, 37° C., 30 min
[2] = target: muscarinic receptors; type: binding, Hooded Lister rats; details: 0.27nM 3H-QNB, rat cerebral cortex, tris pH 7.7, 37° C., 30 min

SMILES	IC50 [1] [nM]	IC50 [2] [nM]
OCc1ncc(C23CCCN(CC2)C3)o1 (racemic) [Example E10, (±)5-(2-Hydroxymethyl-1,3-oxazol-5-yl)-1-azabicyclo [3.2.1]octane]	206	7000
Nc1ncc(C2CN3CCC2C3)o1 (racemic) [Example E6, (±) exo and endo 3-(2-Amino-1,3-oxazol-5-yl)-1-azabicyclo[[2.2.1]heptane]	200	10300
Nc1ncc(C23CCN(CC2)C3)o1 [Example E5]	18	11000
Nc1ncc([C@H]2C[C@@H]3CCN(C3)C2)o1 (relative stereo) [Example E16, (±) exo 3-(2-Amino-1,3-oxazol-5-yl)-1-azabicyclo[3.2.1]octane]	560	42000
COC(=O)c1ncc(C23CCCN(CC2)C3)o1 (racemic) [Example E9, (±)5-(2-Methoxycarbonyl-1,3-oxazol-5-yl)-1-azabicyclo [3.2.1]octane]	2000	30500
COCc1ncc(C23CCCN(CC2)C3)o1 (racemic) [Example E11, (±)5-(2-Methoxymethyl-1,3-oxazol-5-yl)-1-azabicyclo [3.2.1]octane]	220	2600
N#Cc1ncc(C23CCCN(CC2)C3)o1 (racemic) [Example E13, (±)5-(2-Cyano-1,3-oxazol-5-yl)-1-azabicyclo[3.2.1]octane]	380	2800
Nc1ncc(C2CN3CCC2CC3)o1 (racemic) [Example E2, (±) 3-(2-Amino-1,3-oxazol-5-yl)-1-azabicyclo[2.2.2]octane]	440	17000
FCc1ncc(C23CCCN(CC2)C3)o1 (racemic) [Example E12, (±)5-(2-Fluoromethyl-1,3-oxazol-5-yl)-1-azabicyclo [3.2.1]octane]	5	440
COCc1ncc(C23CCN(CC2)C3)o1 [Example E17, 4-(2-Methoxymethyl-1,3-oxazol-5-yl)-1-azabicyclo[2.2.1]-heptane]	1050	60000
Nc1ncc(C23CCCN(CC2)C3)o1 (racemic) [Example E3, (±) 5-(2-Amino-1,3-oxazol-5-yl)-1-azabicyclo[3.2.1]-octane]	4	3500
Nc1nc(C23CCCN(CC2)C3)cs1 (racemic) [Example E4, (±5-(2-Amino-1,3-thiazol-4-yl)-1-azabicyclo[3.2.1]octane]	280	5600
Nc1nc(C23CCCN(CC2)C3)co1 (racemic) [Example E1, (±) 5-(2-Amino-1,3-oxazol-4-yl)-1-azabicyclo[3.2.1]octane]	250	42000
